Measured values: patent US20100305124A1, “Acylated Aminopyridine and Aminopyridazine Insecticides” (BAYER CROPSCIENCE AG, priority 2009, published 2010)
Like-named read-outs stand apart in the source and are kept apart here.

System: green peach aphid (Myzus persicae)
Experiment: Myzus test (MYZUPE), sprayed aubergine plants
Assay type: in vivo
Settings: read-out: effect in % (aphids killed); for pest or weed control at 100 ppm: application rate of 100 ppm
Description: Solvent: 3 parts by weight of dimethylformamide Emulsifier: 1 part by weight of polyoxyethylenealkyl phenyl ether
An appropriate preparation of active ingredient is prepared by mixing 1 part by weight of active ingredient with the stated amount of solvent and emulsifier and diluting the concentrate with water to the desired concentration.
Aubergine plants (Solanum melongena) infested by all stages of the green peach aphid (Myzus persicae) are sprayed with a preparation of active ingredient at the desired concentration.
After the desired time, the effect in % is determined; here, 100% means that all of the aphids have been killed. Conversely, 0% means that no aphids have been killed.

[1] = application rate of 500 ppm, spray on aubergine plants

Row | Structure (SMILES) | pest or weed control at 500 ppm [1] [%] | other results
1 | CN(C(=O)c1ccc(Oc2ccccc2Cl)nc1)c1cccnc1 [I-98] | ≥ 80 | –
2 | COc1ccc(Oc2ccc(C(=O)N(C)c3cccnc3)cn2)cc1 [I-92] | ≥ 80 | –
3 | Cc1cncc(C(=O)Nc2cccnc2)c1 [I-10] | – | pest or weed control at 100 ppm (spray on aubergine plants): ≥ 80%
4 | CC(C(=O)c1ccc(Oc2cccc3ncccc23)nc1)c1cccnc1 (centres unmarked) [I-142] | ≥ 80 | –
5 | Cc1cc(C)nc(Sc2ccc(C(=O)N(C)c3cccnc3)cn2)n1 [I-104] | ≥ 80 | –
6 | O=C(Nc1cccnc1)c1ccc(Cn2nc(C(F)(F)F)nc2C(F)(F)F)nc1 [I-6] | ≥ 80 | –
7 | CN(C(=O)c1ccc(N(C)C(=O)C(F)(F)Cl)cc1)c1cccnc1 [I-245] | ≥ 80 | –
8 | CCN(C)C(=O)c1cccc(C(=O)Nc2cccnc2)c1 [I-71] | ≥ 80 | –
9 | CN(C(=O)c1ccc(C(F)(F)C(F)(F)C(F)(F)F)cc1)c1cccnc1 [I-47] | – | pest or weed control at 500 ppm: ≥ 80%
10 | CN(C(=O)c1cnc(Oc2ccc(C(F)(F)F)cc2)c(Cl)c1)c1cccnc1 [I-146] | ≥ 80 | –
11 | CSCc1ccc(C(=O)N(C)c2cccnc2)cc1 [I-59] | ≥ 80 | –
12 | C#CCN(C(=O)c1ccc(Oc2ccc(OC(F)(F)F)cc2)nc1)c1cccnc1 [I-135] | ≥ 80 | –
13 | Cc1ccc(C(=O)Nc2cccnc2)cn1 [I-38] | ≥ 80 | –
14 | Cc1cc(C)nc(Oc2ccc(C(=O)N(C)c3cccnc3)cc2)n1 [I-182] | ≥ 80 | –
15 | CCSc1ccc(C(=O)N(CC)c2cccnc2)cc1 [I-65] | – | pest or weed control at 100 ppm (spray on aubergine plants): ≥ 80%
16 | Cc1cc(C)nc(Sc2ccc(C(=O)Nc3cccnc3)cn2)n1 [I-159] | ≥ 80 | –
17 | O=C(Nc1cccnc1)c1ccc(C(F)(F)C(F)(F)C(F)(F)F)cc1 [I-29] | – | pest or weed control at 500 ppm: ≥ 80%
18 | Cc1ccnc(Sc2ccc(C(=O)N(C)c3cccnc3)cn2)n1 [I-137] | ≥ 80 | –
19 | O=C(Nc1cccnc1)c1ccc(NCC2CC2)nc1 [I-210] | ≥ 80 | –
20 | CN(C(=O)c1ccc(Oc2ccc(-n3cncn3)cc2)nc1)c1cccnc1 [I-128] | ≥ 80 | –
21 | CN(C(=O)c1ccc(Oc2ccc([N+](=O)[O-])cc2)nc1)c1cccnc1 [I-93] | ≥ 80 | –
22 | Cc1cc(C)nc(Sc2ccc(C(=O)N(Cc3ccc(OC(F)(F)F)cc3)c3cccnc3)cn2)n1 [I-230] | ≥ 80 | –

Row | Structure (SMILES) | pest or weed control at 500 ppm [1] [%] | other results
23 | O=C(Nc1cccnc1)c1ccc(Oc2ccccc2Cl)nc1 [I-82] | ≥ 80 | –
24 | O=C(Nc1cccnc1)c1ccc(Sc2ncccn2)nc1 [I-194] | ≥ 80 | –
25 | COc1cc(OC)nc(Sc2ccc(C(=O)Nc3cccnc3)cc2)n1 [I-176] | ≥ 80 | –
26 | CN(C(=O)c1ccc(Sc2ccc(C(F)(F)F)cc2)nc1)c1cccnc1 [I-118] | ≥ 80 | –
27 | CC(=O)N(C)c1ccc(C(=O)N(C)c2cccnc2)cc1 [I-253] | ≥ 80 | –
28 | CSCc1ccc(C(=O)Nc2cccnc2)cc1 [I-32] | ≥ 80 | –
29 | Cc1ccnc(Sc2ccc(C(=O)Nc3cccnc3)cn2)n1 [I-195] | ≥ 80 | –
30 | CN(C(=O)c1ccc(Cn2cnc(C(F)(F)F)n2)cc1)c1cccnc1 [I-25] | ≥ 80 | –
31 | CC(=O)N(Cc1ccc(C(=O)N(C)c2cccnc2)cc1)CC(C)C [I-238] | ≥ 80 | –
32 | CCSc1ccc(C(=O)N(C)c2cccnc2)cc1 [I-56] | ≥ 80 | –
33 | COc1nc(OC)nc(Sc2ccc(C(=O)Nc3cccnc3)cc2)n1 [I-188] | ≥ 80 | –
34 | CCCSc1ccc(C(=O)Nc2cccnc2)cc1 [I-68] | ≥ 80 | –
35 | O=C(Nc1cccnc1)c1ccc(Cn2nc(C(F)(F)F)nc2C(F)(F)F)c(Cl)c1 [I-18] | ≥ 80 | –
36 | CN(C(=O)c1ccc(Sc2ccc(C(F)(F)F)cn2)nc1)c1cccnc1 [I-119] | ≥ 80 | –
37 | O=C(Nc1cccnc1)c1ccc(NCCN2CCOCC2)nc1 [I-223] | ≥ 80 | –
38 | O=C(Nc1cccnc1)c1ccc(Cn2cc(Br)c(C(F)(F)F)n2)cc1 [I-20] | ≥ 80 | –
39 | O=C(Nc1cccnc1)c1ccc(Cn2cnc(C(F)(F)C(F)(F)F)n2)cc1 [I-17] | ≥ 80 | –
40 | CCN(C(=O)c1ccc(Oc2cccc(C(F)(F)F)c2)nc1)c1cccnc1 [I-221] | ≥ 80 | –
41 | CN(C(=O)c1cnc(Oc2ccc(C#N)cc2)c(Cl)c1)c1cccnc1 [I-149] | ≥ 80 | –
42 | CCN(C(=O)c1ccc(C(=O)OC)cc1)c1cccnc1 [I-241] | ≥ 80 | –
43 | Cc1cc(C)nc(Sc2ccc(C(=O)Nc3cccnc3)cc2)n1 [I-179] | ≥ 80 | –
44 | COc1ccc(C(=O)N(C)c2cccnc2)cn1 [I-155] | ≥ 80 | –
